Measured values taken from patent publication US20250214977A1, “STAT6 INHIBITORS AND USES THEREOF” (Kymera Therapeutics, Inc., priority 2024, published 2025).

Tested on: Phosphorylation of STAT6 in human PBMC (CD19+ B cells)
Assay: Phosphorylated STAT6 (pSTAT6) flow cytometry assay in human PBMC, IL-4 stimulated
Type: cell-based
Conditions: compound 1 hour, 1 ng/ml IL-4 for 15 minutes, read-out: STAT6 IL4 pSTAT6 assay in PBMC: Average IC50
Method in brief: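 Human PBMC preincubated 1 h at 37 °C with compound (9-point 1:3 series, top up to 30 μM), then stimulated with 1 ng/ml IL-4 for 15 min. After fixation, methanol permeabilization and staining, pSTAT6 quantified in CD19+ B cells by flow cytometry; four-parameter fit of inhibition.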

SMILES	IC50 [µM]
Cc1c(S(C)(=O)=O)ccc(C(=O)N2CCC=C(c3ccc4cc(C(=O)N(C)C)[nH]c4c3)C2)c1Cl [Example I-138]	> 100
CN(C)C(=O)c1cc2ccc(C3=CCCN(C(=O)C4CCN(S(C)(=O)=O)CC4)C3)cc2[nH]1 [Example I-140]	> 100
COC(=O)c1ccc(OCC(=O)N2CCC=C(c3ccc4cc(C(=O)N(C)C)[nH]c4c3)C2)cc1 [Example I-142]	> 100
CN(C)C(=O)c1cc2ccc(C3=CCCN(C(=O)c4snnc4C4CC4)C3)cc2[nH]1 [Example I-143]	> 100
CN(C)C(=O)c1cc2ccc(C3=CCCN(C(=O)c4cc(C#N)ccc4Br)C3)cc2[nH]1 [Example I-144]	> 100
COCc1oncc1C(=O)N1CCC=C(c2ccc3cc(C(=O)N(C)C)[nH]c3c2)C1 [Example I-145]	> 100
CN(C)C(=O)c1cc2ccc(C3=CCCN(C(=O)c4ccnnc4O)C3)cc2[nH]1 [Example I-146]	> 100
CN(C)C(=O)c1cc2cc(C3=CCCN(C(=O)CCc4nncs4)C3)ccc2o1 [Example I-147]	> 100
CNCc1cccc2c1CC(C(=O)N1CCC=C(c3ccc4oc(C(=O)N(C)C)cc4c3)C1)N(C=O)C2 (centres unmarked) [Example I-148]	> 100
COC(=O)C1CCC(c2ccc3oc(C(=O)N(C)C)cc3c2)CN1C(=O)CCn1ccnn1 (centres unmarked) [Example I-149]	> 100
COC(=O)C1CCC(c2ccc3oc(C(=O)N(C)C)cc3c2)CN1C(=O)CCn1ccnn1 (centres unmarked) [Example I-150]	> 100
CCNC(Cn1ccnn1)C(=O)N1CCC=C(c2ccc3oc(C(=O)N(C)C)cc3c2)C1 (centres unmarked) [Example I-153]	> 100
CN(C)C(=O)c1cc2cc(C3CCC(CO)N(C(=O)CCn4ccnn4)C3)ccc2o1 (centres unmarked) [Example I-154]	> 100
CN(C)C(=O)c1cc2cc(C3CCC(CO)N(C(=O)CCn4ccnn4)C3)ccc2o1 (centres unmarked) [Example I-155]	> 100
CN(C)C(=O)c1cc2ccc(C3=CCCN(C(=O)c4ccc(N5CCOCC5)c(F)c4)C3)cc2[nH]1 [Example I-158]	> 100
CN(C)C(=O)c1cc2ccc(C3=CCCN(C(=O)C(CO)c4ccccc4)C3)cc2[nH]1 (centres unmarked) [Example I-159]	> 100
CN(C)C(=O)c1cc2ccc(C3=CCCN(C(=O)C(c4ccc(F)cc4)c4ccc(F)cc4)C3)cc2[nH]1 [Example I-160]	> 100
CN(C)C(=O)c1cc2ccc(C3=CCCN(C(=O)CCc4ccc(C#N)cc4)C3)cc2[nH]1 [Example I-162]	> 100
CN(C)C(=O)c1cc2ccc(C3=CCCN(C(=O)C4CS(=O)(=O)C4)C3)cc2[nH]1 [Example I-163]	> 100
CN(C)C(=O)c1cc2cc(C3=CCCN(C(=O)CCc4ncns4)C3)ccc2o1 [Example I-165]	> 100
CN(C)C(=O)c1cc2cc(C3=CCCN(C(=O)CCn4ccnn4)C3)cc(CN3CC(N)C3)c2o1 [Example I-166]	> 100
CN(C)C(=O)c1cc2cc(C3=CCCN(C(=O)CCn4ccnn4)C3)cc(CN3CCNCC3)c2o1 [Example I-167]	> 100
CN(C)C(=O)c1cc2cc(C3=CCCN(C(=O)CCc4nncc5ccccc45)C3)ccc2o1 [Example I-168]	> 100
CCN[C@H](Cn1ccnn1)C(=O)N1CCC=C(c2ccc3oc(C(=O)N(C)C)cc3c2)C1 [Example I-169]	> 100
CC(=O)N1Cc2ccccc2CC1C(=O)N1CCC=C(c2ccc3oc(C(=O)N(C)C)cc3c2)C1 (centres unmarked) [Example I-170]	> 100
CN(C)C(=O)c1cc2cc(C3=CCCN(C(=O)C4Cc5c(cccc5OCCN)CN4C=O)C3)ccc2o1 (centres unmarked) [Example I-171]	10 to 100
CN(C)C(=O)c1cc2cc(C3=CCCN(C(=O)C4Cc5c(cccc5-n5cccn5)CN4C=O)C3)ccc2o1 (centres unmarked) [Example I-172]	> 100
COC(=O)CCC#Cc1cccc2c1CC(C(=O)N1CCC=C(c3ccc4oc(C(=O)N(C)C)cc4c3)C1)N(C=O)C2 (centres unmarked) [Example I-175]	1 to 10
CC(=O)NC(Cn1ccnn1)C(=O)N1CCC=C(c2ccc3oc(C(=O)N(C)C)cc3c2)C1 (centres unmarked) [Example I-178]	> 100
